From US20250101023A1, “HETEROARYL DERIVATIVE AND USES THEREOF” (IUCF-HYU (INDUSTRY-UNIVERSITY COOPERATION FOUNDATION …, priority 2022, published 2025)

Legend:
RIPK4 = RIPK4 (Homo sapiens (Human), UniProt P57078); assay: Kinome-wide profiling; assay type: biochemical; details: read-out: % Residual Activity (mean)
CDK16/cyclin Y (PCTAIRE) = CDK16/cyclin Y (PCTAIRE) (Homo sapiens (Human), UniProt Q00536); assay: Kinome-wide profiling; assay type: biochemical; details: read-out: % Residual Activity (mean)
PHKg2 = PHKg2 (Homo sapiens (Human), UniProt P15735); assay: Kinome-wide profiling; assay type: biochemical; details: read-out: % Residual Activity (mean)
WNK1 = WNK1 (Homo sapiens (Human), UniProt Q9H4A3); assay: Kinome-wide profiling; assay type: biochemical; details: read-out: % Residual Activity (mean)
PDGFRb = PDGFRb (Homo sapiens (Human), UniProt P09619); assay: Kinome-wide profiling; assay type: biochemical; details: read-out: % Residual Activity (mean)
WEE1 = WEE1 (Homo sapiens (Human), UniProt P30291); assay: Kinome-wide profiling; assay type: biochemical; details: read-out: % Residual Activity (mean)
CK2a2 = CK2a2 (Homo sapiens (Human), UniProt P19784); assay: Kinome-wide profiling; assay type: biochemical; details: read-out: % Residual Activity (mean)
SLK/STK2 = SLK/STK2 (Homo sapiens (Human), UniProt Q9H2G2); assay: Kinome-wide profiling; assay type: biochemical; details: read-out: % Residual Activity (mean)
SNRK = SNRK (Homo sapiens (Human), UniProt Q9NRH2); assay: Kinome-wide profiling; assay type: biochemical; details: read-out: % Residual Activity (mean)
SNARK/NUAK2 = SNARK/NUAK2 (Homo sapiens (Human), UniProt Q9H093); assay: Kinome-wide profiling; assay type: biochemical; details: read-out: % Residual Activity (mean)
MEKK3 = MEKK3 (Homo sapiens (Human), UniProt Q99759); assay: Kinome-wide profiling; assay type: biochemical; details: read-out: % Residual Activity (mean)
EPHA4 = EPHA4 (Homo sapiens (Human), UniProt P54764); assay: Kinome-wide profiling; assay type: biochemical; details: read-out: % Residual Activity (mean)
FRK/PTK5 = FRK/PTK5 (Homo sapiens (Human), UniProt P42685); assay: Kinome-wide profiling; assay type: biochemical; details: read-out: % Residual Activity (mean)
P38a/MAPK14 = P38a/MAPK14 (Homo sapiens (Human), UniProt Q16539); assay: Kinome-wide profiling; assay type: biochemical; details: read-out: % Residual Activity (mean)
CDK18/cyclin Y (PCTK3) = CDK18/cyclin Y (PCTK3) (Homo sapiens (Human), UniProt Q07002); assay: Kinome-wide profiling; assay type: biochemical; details: read-out: % Residual Activity (mean)
TESK1 = TESK1 (Homo sapiens (Human), UniProt Q15569); assay: Kinome-wide profiling; assay type: biochemical; details: read-out: % Residual Activity (mean)
GRK2 = GRK2 (Homo sapiens (Human), UniProt P25098); assay: Kinome-wide profiling; assay type: biochemical; details: read-out: % Residual Activity (mean)
JAK2 = JAK2 (Homo sapiens (Human), UniProt O60674); assay: Kinome-wide profiling; assay type: biochemical; details: read-out: % Residual Activity (mean)
GRK6 = GRK6 (Homo sapiens (Human), UniProt P43250); assay: Kinome-wide profiling; assay type: biochemical; details: read-out: % Residual Activity (mean)
CDK6/cyclin D1 = CDK6/cyclin D1 (Homo sapiens (Human), UniProt Q00534); assay: Kinome-wide profiling; assay type: biochemical; details: read-out: % Residual Activity (mean)
CYP1A2 = CYP1A2 (Homo sapiens (Human), UniProt P05177); assay: in vitro; assay type: in vitro ADME
Experimental: 5 derivatives were evaluated for in vitro metabolic stability in liver microsomes from three different species (human, dog, mouse) and for inhibitory activity against 5 representative cytochrome P450 enzymes (CYPs)(Table 3). In terms of liver microsomal stability, the 2′-pyridyl group is more suitable than the α-methyl-4′-pyridyl group as the terminal aromatic group at position 6, and the aminopyrimidyl group is better than the aminopyridyl group as a substituent at position 2.

PKCa = PKCa (Homo sapiens (Human), UniProt P17252); assay: Kinome-wide profiling; assay type: biochemical; details: read-out: % Residual Activity (mean)
TESK2 = TESK2 (Homo sapiens (Human), UniProt Q96S53); assay: Kinome-wide profiling; assay type: biochemical; details: read-out: % Residual Activity (mean)
CDK9/cyclin K = CDK9/cyclin K (Homo sapiens (Human), UniProt P50750); assay: Kinome-wide profiling; assay type: biochemical; details: read-out: % Residual Activity (mean)
MAST3 = MAST3 (Homo sapiens (Human), UniProt O60307); assay: Kinome-wide profiling; assay type: biochemical; details: read-out: % Residual Activity (mean)
p70S6Kb/RPS6KB2 = p70S6Kb/RPS6KB2 (Homo sapiens (Human), UniProt Q9UBS0); assay: Kinome-wide profiling; assay type: biochemical; details: read-out: % Residual Activity (mean)
TIE2/TEK = TIE2/TEK (Homo sapiens (Human), UniProt Q02763); assay: Kinome-wide profiling; assay type: biochemical; details: read-out: % Residual Activity (mean)
MST3/STK24 = MST3/STK24 (Homo sapiens (Human), UniProt Q9Y6E0); assay: Kinome-wide profiling; assay type: biochemical; details: read-out: % Residual Activity (mean)
PRKX = PRKX (Homo sapiens (Human), UniProt P51817); assay: Kinome-wide profiling; assay type: biochemical; details: read-out: % Residual Activity (mean)
HIPK2 = HIPK2 (Homo sapiens (Human), UniProt Q9H2X6); assay: Kinome-wide profiling; assay type: biochemical; details: read-out: % Residual Activity (mean)
MELK = MELK (Homo sapiens (Human), UniProt Q14680); assay: Kinome-wide profiling; assay type: biochemical; details: read-out: % Residual Activity (mean)
CK1g2 = CK1g2 (Homo sapiens (Human), UniProt P78368); assay: Kinome-wide profiling; assay type: biochemical; details: read-out: % Residual Activity (mean)
ULK3 = ULK3 (Homo sapiens (Human), UniProt Q6PHR2); assay: Kinome-wide profiling; assay type: biochemical; details: read-out: % Residual Activity (mean)
GLK/MAP4K3 = GLK/MAP4K3 (Homo sapiens (Human), UniProt Q8IVH8); assay: Kinome-wide profiling; assay type: biochemical; details: read-out: % Residual Activity (mean)
VRK2 = VRK2 (Homo sapiens (Human), UniProt Q86Y07); assay: Kinome-wide profiling; assay type: biochemical; details: read-out: % Residual Activity (mean)
MSK1/RPS6KA5 = MSK1/RPS6KA5 (Homo sapiens (Human), UniProt O75582); assay: Kinome-wide profiling; assay type: biochemical; details: read-out: % Residual Activity (mean)
PIM3 = PIM3 (Homo sapiens (Human), UniProt Q86V86); assay: Kinome-wide profiling; assay type: biochemical; details: read-out: % Residual Activity (mean)

Chain of CDK6/cyclin D1 (Q00534 whole entry): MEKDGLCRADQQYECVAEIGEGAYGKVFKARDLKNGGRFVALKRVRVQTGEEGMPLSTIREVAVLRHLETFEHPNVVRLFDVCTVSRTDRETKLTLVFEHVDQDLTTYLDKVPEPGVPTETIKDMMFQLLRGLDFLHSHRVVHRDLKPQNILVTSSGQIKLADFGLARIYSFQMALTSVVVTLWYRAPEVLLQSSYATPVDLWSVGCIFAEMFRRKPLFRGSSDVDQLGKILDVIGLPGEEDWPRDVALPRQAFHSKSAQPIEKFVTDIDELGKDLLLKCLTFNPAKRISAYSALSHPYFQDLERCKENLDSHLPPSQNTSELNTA
Chain of CDK6/cyclin D1 (P24385 whole entry partner): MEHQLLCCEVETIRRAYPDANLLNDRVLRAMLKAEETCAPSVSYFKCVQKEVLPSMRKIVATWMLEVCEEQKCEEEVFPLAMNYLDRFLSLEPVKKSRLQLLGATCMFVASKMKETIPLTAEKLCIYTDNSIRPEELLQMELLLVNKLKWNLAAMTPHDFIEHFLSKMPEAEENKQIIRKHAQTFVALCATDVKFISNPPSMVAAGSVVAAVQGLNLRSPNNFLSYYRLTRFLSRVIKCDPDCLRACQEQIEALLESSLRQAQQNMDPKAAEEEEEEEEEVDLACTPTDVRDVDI
Chain of WNK1 (Q9H4A3 whole entry): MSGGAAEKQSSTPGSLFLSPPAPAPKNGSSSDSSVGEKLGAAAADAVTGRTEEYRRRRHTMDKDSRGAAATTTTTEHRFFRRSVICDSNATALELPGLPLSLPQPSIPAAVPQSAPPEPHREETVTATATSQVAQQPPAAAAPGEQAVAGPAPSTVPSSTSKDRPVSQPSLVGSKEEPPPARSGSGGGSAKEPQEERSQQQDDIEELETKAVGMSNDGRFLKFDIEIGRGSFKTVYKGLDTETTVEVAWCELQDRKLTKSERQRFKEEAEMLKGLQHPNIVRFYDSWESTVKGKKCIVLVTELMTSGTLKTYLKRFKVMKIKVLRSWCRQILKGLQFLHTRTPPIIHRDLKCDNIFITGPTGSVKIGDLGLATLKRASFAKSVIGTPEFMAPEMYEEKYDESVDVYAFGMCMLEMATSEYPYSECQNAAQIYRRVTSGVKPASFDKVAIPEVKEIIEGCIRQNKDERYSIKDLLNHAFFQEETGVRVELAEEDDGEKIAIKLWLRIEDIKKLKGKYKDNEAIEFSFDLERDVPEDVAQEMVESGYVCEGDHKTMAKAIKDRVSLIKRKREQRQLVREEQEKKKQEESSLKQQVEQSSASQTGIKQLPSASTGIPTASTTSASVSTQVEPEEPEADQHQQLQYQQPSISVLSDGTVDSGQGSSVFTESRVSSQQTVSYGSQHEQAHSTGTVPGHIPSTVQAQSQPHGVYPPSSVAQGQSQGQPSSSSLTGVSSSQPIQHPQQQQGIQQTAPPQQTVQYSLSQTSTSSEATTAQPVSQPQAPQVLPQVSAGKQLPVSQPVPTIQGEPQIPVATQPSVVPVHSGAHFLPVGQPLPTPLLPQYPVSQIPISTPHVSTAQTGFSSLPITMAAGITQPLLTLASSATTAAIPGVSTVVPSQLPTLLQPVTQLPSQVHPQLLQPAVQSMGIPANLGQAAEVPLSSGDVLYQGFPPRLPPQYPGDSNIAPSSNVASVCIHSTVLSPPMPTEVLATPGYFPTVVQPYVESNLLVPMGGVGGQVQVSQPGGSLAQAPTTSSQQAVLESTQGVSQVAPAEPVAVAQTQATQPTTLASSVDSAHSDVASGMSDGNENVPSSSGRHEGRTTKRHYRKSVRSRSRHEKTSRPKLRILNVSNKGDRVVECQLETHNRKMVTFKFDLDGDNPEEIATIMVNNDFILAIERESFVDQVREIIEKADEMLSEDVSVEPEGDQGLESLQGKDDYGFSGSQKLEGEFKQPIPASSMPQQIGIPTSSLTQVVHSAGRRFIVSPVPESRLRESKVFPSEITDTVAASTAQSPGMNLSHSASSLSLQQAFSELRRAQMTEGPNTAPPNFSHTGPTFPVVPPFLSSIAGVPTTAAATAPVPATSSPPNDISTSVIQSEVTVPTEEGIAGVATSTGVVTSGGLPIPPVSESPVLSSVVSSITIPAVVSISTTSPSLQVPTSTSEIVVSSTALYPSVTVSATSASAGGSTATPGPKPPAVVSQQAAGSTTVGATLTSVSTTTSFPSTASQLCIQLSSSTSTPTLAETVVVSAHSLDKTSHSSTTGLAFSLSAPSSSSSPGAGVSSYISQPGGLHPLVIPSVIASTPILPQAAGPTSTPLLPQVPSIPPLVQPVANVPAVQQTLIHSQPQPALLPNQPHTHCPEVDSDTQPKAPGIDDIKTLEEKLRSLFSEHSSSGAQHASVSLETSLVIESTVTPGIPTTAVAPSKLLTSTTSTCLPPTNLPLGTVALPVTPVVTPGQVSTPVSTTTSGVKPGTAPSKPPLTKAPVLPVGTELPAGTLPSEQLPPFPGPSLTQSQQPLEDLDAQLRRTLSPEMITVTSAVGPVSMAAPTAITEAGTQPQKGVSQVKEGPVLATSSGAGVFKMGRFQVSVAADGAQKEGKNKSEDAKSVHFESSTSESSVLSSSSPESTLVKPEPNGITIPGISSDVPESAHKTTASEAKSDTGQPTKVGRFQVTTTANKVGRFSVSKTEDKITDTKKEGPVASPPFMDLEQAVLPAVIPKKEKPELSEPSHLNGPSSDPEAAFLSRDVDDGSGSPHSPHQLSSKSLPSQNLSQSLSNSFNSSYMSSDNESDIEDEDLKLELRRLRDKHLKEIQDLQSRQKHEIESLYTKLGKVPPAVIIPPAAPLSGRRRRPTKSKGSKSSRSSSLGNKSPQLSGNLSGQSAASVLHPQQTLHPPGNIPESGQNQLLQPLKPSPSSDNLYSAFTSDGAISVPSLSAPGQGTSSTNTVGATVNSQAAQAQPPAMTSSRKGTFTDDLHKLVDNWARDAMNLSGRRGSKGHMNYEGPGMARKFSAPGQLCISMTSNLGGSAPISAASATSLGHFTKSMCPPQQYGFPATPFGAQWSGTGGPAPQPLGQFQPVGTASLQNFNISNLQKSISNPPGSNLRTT
Chain of RIPK4 (P57078 whole entry): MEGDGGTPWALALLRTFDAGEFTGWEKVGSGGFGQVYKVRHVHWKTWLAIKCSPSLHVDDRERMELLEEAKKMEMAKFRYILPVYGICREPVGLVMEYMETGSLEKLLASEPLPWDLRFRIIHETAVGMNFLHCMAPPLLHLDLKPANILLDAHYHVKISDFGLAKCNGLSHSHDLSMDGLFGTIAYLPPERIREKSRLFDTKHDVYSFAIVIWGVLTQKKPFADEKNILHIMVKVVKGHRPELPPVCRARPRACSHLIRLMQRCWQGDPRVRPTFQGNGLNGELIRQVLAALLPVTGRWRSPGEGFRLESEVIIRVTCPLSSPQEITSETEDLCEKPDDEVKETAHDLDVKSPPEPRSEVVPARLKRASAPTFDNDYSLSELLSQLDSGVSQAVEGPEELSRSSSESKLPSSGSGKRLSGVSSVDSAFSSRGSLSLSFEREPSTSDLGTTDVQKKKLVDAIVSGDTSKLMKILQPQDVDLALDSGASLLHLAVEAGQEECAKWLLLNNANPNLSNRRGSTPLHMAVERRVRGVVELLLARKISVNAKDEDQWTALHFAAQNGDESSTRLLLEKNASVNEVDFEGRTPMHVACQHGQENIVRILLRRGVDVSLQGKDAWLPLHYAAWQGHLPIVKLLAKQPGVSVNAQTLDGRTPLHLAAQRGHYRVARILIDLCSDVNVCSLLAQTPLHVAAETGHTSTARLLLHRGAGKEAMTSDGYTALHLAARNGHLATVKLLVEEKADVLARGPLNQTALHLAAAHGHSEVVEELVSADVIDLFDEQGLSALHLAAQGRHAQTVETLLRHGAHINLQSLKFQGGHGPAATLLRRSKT
Chain of TESK2 (Q96S53 whole entry): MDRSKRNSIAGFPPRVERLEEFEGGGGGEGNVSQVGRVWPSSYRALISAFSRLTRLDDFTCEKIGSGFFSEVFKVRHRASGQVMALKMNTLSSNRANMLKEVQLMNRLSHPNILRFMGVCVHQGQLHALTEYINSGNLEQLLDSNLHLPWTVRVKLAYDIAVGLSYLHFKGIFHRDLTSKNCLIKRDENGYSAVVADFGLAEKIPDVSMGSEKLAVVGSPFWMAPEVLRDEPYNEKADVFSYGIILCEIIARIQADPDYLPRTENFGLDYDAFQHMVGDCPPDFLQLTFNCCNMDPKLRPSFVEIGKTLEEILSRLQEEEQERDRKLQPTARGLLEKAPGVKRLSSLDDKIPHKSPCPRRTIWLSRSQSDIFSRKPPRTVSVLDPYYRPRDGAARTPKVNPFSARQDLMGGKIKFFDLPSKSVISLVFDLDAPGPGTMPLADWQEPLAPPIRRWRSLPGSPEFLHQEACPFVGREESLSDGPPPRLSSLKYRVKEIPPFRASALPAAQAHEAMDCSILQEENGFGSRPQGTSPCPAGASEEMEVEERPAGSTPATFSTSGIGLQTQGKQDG
Chain of TESK1 (Q15569 whole entry): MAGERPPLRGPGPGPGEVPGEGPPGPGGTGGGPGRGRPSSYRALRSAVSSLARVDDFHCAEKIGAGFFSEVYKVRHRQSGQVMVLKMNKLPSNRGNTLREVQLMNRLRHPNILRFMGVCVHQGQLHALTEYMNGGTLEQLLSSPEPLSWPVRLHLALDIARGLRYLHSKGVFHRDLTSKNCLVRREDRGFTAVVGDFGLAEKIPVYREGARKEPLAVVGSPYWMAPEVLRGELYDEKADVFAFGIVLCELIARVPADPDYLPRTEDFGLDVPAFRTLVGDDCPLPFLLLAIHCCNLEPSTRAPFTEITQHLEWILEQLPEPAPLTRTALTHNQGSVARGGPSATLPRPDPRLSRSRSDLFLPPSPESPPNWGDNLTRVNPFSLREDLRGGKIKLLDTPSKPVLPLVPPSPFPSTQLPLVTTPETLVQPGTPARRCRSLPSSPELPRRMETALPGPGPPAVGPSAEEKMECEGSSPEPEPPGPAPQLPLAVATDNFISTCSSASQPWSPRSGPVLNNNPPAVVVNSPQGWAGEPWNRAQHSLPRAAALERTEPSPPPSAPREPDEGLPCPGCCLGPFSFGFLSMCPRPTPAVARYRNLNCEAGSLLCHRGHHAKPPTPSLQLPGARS

CCn1cnc2c(NCc3ccc(-c4ccccn4)nc3)nc(-c3ccc(N)nc3)nc21 [Example 53, N-([2,2′-bipyridin]-5-ylmethyl)-2-(6-aminopyridin-3-yl)-9-ethyl-9H-purin-6-amine]
remaining activity at 10 µM (RIPK4): 97.8% | remaining activity at 10 µM (CDK16/cyclin Y (PCTAIRE)): 17.5% | remaining activity at 10 µM (PHKg2): 56.9% | remaining activity at 10 µM (WNK1): 82.5% | remaining activity at 10 µM (PDGFRb): 34.7% | remaining activity at 10 µM (WEE1): 90.2% | remaining activity at 10 µM (CK2a2): 91.3% | remaining activity at 10 µM (SLK/STK2): 69.5% | remaining activity at 10 µM (SNRK): 93% | remaining activity at 10 µM (SNARK/NUAK2): 59% | remaining activity at 10 µM (MEKK3): 94% | remaining activity at 10 µM (EPHA4): 3.61% | remaining activity at 10 µM (FRK/PTK5): 43.5% | remaining activity at 10 µM (P38a/MAPK14): 84.2% | remaining activity at 10 µM (CDK18/cyclin Y (PCTK3)): 2.46% | remaining activity at 10 µM (TESK1): 93.1% | remaining activity at 10 µM (GRK2): 99.1% | remaining activity at 10 µM (JAK2): 87% | remaining activity at 10 µM (GRK6): 80.6% | remaining activity at 10 µM (CDK6/cyclin D1): 24.2% | activity at 10 µM (CYP1A2): 74.7% | remaining activity at 10 µM (PKCa): 62.4% | remaining activity at 10 µM (TESK2): 83.7% | remaining activity at 10 µM (CDK9/cyclin K): 1.07% | remaining activity at 10 µM (MAST3): 39.3% | remaining activity at 10 µM (p70S6Kb/RPS6KB2): 92.2% | remaining activity at 10 µM (TIE2/TEK): 34.8% | remaining activity at 10 µM (MST3/STK24): 47% | remaining activity at 10 µM (PRKX): 79.2% | remaining activity at 10 µM (HIPK2): 81.3% | remaining activity at 10 µM (MELK): 21.1% | remaining activity at 10 µM (CK1g2): 27% | remaining activity at 10 µM (ULK3): 91.8% | remaining activity at 10 µM (GLK/MAP4K3): 49.6% | remaining activity at 10 µM (VRK2): 96.6% | remaining activity at 10 µM (MSK1/RPS6KA5): 80.5% | remaining activity at 10 µM (PIM3): 86.7%
